The results in this text go back to patent US9745325B2, “Fused heterocyclic compound” (Takeda Pharmaceutical Company Limited, priority 2014, dated 2017).

The target of one assay is T1, CDK8/CycC (Homo sapiens, UniProt P49336).
T1 construct: purchased Carna Biosciences
Nature of the assay: CDK8 inhibitory activity (Kinase Tracer-236 / Eu-anti-GST fluorescence assay). Set-up: Percent inhibition of CDK8 activity (%): concentration or dose not given beside the values. The settings on record: test compound concentration given as '1 1.1.1\4' [sic]. Format: binding. The method, then:
(§1) The compound of the present invention was evaluated for its CDK8 inhibitory activity and CDK19 inhibitory activity by the following method. […] The primary diluted solution was dispensed in the amount of 2 μL/well to a 384-well plate, and then, a mixed solution of Eu^3+ Cryptate conjugated mouse monoclonal antibody anti-glutathione S-transferase (Cisbio) diluted 267-fold with an assay buffer and 60 nM Kinase Tracer-236 (Life technologies) was added thereto at 2 μL/well. […] After the addition, the plate was left standing at room temperature for 1 hour, and then, the fluorescence intensity (excitation wavelength 320 nm, fluorescence wavelength 615 nm, 665 nm, delay time 50 μsec) was measured using ann EnVision plate reader (PerkinElmer). The percent inhibition of CDK8 or CDK19 activity by the test compound can be calculated according to the following formula, wherein the fluorescence intensity of a reaction solution in the absence of compound is defined as the control, and the fluorescence intensity of a reaction solution in the presence of 10 μM of control compound is defined as the blank.

For a further assay, the target named is T2, CDC2L6/CycC (CDK19) (Homo sapiens, UniProt Q9BWU1).
T2 construct: purchased Carna Biosciences Inc
The assay is described as follows: CDK19 inhibitory activity (Kinase Tracer-236 / Eu-anti-GST fluorescence assay). It is filed as binding. Set-up: Percent inhibition of CDK19 activity (%): concentration or dose not given beside the values. Conditions: test compound concentration given as '1 1.1.1\4' [sic]. The method, then: as §1

The test system of assay [1] is human multiple myeloma RPMI8226 cells. The assay is described as follows: Inhibitory activity against human multiple myeloma RPMI8226 cell growth (CellTiter-Glo). Format: cell-based. Conditions: 1 μM test compound, cultured for 8 days; for inhibition at 1 µM: Homo sapiens, RPMI-8226, 192 h, read-out: Percent inhibition of RPMI8226 cell growth (%). The method, then:
The compound of the present invention was evaluated for its inhibitory activity against human multiple myeloma RPMI8226 cell growth by the following method.
A suspension of human multiple myeloma RPMI8226 cells (purchased from the Health Protection Agency) was inoculated at 40 μL (300 cells/well) to a 384-well plate and cultured at 37° C. for 1 day in a 5% CO2 incubator. After the culture, each test compound solution was added thereto at a test concentration of 1 μM using TECAN D300, and the cells were further cultured for 8 days. After the culture, CellTiter-Glo™ Luminescent Cell Viability Assay reagent (Promega) was added at 40 μL/well to a 384-well plate, and the amount of luminescence was measured using a luminometer. Inhibitory activity against human multiple myeloma RPMI8226 cell growth (percent inhibition (%)) of the test compound was calculated according to the following formula, which is based on the hypothesis that the amount of residual ATP reflects the number of cells. In this formula, 100% control represents the amount of luminescence from a well with only 0.1% DMSO added. Percent inhibition (%)=(1−(amount of luminescence of the test compound)÷(100% control))×100
A general note: Cellular ATP, detected with luciferase, serves as a proxy for viable cell number.

T2 sequence (Q9BWU1 whole entry): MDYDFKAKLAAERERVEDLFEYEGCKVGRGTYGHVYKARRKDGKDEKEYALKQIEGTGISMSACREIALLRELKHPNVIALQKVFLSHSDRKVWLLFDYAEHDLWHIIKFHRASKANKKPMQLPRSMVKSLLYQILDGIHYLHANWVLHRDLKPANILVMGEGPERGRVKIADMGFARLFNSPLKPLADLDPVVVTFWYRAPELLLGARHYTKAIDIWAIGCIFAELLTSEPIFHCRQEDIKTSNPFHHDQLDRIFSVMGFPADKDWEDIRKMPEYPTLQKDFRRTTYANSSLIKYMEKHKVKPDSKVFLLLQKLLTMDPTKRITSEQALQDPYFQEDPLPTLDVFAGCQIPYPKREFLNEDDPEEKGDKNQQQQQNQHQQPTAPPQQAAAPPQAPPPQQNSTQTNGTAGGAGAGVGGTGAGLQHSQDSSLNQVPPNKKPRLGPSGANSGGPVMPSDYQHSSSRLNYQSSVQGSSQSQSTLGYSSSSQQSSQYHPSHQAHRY
T2 sequence (P24863 whole entry partner): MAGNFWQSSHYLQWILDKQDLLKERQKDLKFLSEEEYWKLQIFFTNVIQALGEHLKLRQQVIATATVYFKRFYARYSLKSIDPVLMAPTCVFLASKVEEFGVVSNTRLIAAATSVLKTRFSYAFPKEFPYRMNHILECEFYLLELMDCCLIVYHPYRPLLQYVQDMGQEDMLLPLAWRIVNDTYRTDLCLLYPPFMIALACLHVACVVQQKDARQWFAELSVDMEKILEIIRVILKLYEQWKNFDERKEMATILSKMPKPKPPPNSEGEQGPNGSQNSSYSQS
T1 sequence (P49336 whole entry): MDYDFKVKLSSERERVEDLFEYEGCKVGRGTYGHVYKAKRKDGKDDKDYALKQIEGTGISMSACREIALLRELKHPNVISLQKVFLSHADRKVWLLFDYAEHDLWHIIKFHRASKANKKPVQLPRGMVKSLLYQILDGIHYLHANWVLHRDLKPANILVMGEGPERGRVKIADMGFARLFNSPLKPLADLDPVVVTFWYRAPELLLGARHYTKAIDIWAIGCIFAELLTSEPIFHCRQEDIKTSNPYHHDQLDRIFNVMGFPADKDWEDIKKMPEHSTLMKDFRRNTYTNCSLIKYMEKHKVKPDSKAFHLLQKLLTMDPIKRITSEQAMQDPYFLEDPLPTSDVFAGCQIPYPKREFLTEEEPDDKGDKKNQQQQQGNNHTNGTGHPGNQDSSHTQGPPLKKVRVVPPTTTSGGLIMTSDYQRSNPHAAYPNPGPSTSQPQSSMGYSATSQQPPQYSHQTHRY
T1 sequence (P24863 whole entry partner): as the sequence (P24863 whole entry partner) above

For the compound `COCCNC(=O)c1ccc(Oc2sc(C(N)=O)c3c2-c2sncc2CC3)cn1` [Example 139, 8-((6-((2-Methoxyethyl)carbamoyl)pyridin-3-yl)oxy)-4,5-dihydrothieno[3,4-g][1,2]benzothiazole-6-carboxamide succinic acid (1:1)], the “Percent inhibition of CDK8 activity (%)” value on CDK8/CycC is recorded as 103%. The “Percent inhibition of CDK19 activity (%)” value on CDC2L6/CycC (CDK19) is 100%. Moreover, the “Percent inhibition of RPMI8226 cell growth (%)” value in assay [1] (1 µM) is 71%.

Regarding `CC(=O)c1sc(Oc2cccnc2C)c2c1CCc1cnsc1-2` [Example 39, 1-(8-((2-Methylpyridin-3-yl)oxy)-4,5-dihydrothieno[3,4-g][1,2]benzothiazol-6-yl)ethanone], the “Percent inhibition of CDK8 activity (%)” value at CDK8/CycC stood at 97%. On CDC2L6/CycC (CDK19), the “Percent inhibition of CDK19 activity (%)” value was determined as 95%. The inhibition at 1 µM in assay [1] was 60%.

Regarding `Cc1nn(C)cc1Oc1sc(C(N)=O)c2c1-c1sncc1CC2` [Example 47, 8-((1,3-Dimethyl-1H-pyrazol-4-yl)oxy)-4,5-dihydrothieno[3,4-g][1,2] benzothiazole-6-carboxamide], at CDK8/CycC, the “Percent inhibition of CDK8 activity (%)” value is recorded as 105%. Besides, the “Percent inhibition of CDK19 activity (%)” value at CDC2L6/CycC (CDK19) is recorded as 100%. In addition, in assay [1], the inhibition at 1 µM is 57%.

Take `CNC(=O)c1ccc(Oc2sc(C(N)=O)c3c2-c2sncc2CC3)c(C)n1` [Example 112, 8-((2-Methyl-6-(methylcarbamoyl)pyridin-3-yl)oxy)-4,5-dihydrothieno [3,4-g][1,2]benzothiazole-6-carboxamide]: the “Percent inhibition of CDK8 activity (%)” value on CDK8/CycC is reported as 106%. On CDC2L6/CycC (CDK19), the “Percent inhibition of CDK19 activity (%)” value came to 102%. Besides, the inhibition at 1 µM in assay [1] is 69%.

In the case of `CC(C)(O)C(=O)Nc1ccc(Oc2sc(C(N)=O)c3c2-c2sncc2CC3)cn1` [Example 22, 8-((6-((2-Hydroxy-2-methylpropanoyl)amino)pyridin-3-yl)oxy)-4,5-dihydrothieno[3,4-g][1,2]benzothiazole-6-carboxamide], the “Percent inhibition of CDK8 activity (%)” value on CDK8/CycC is reported as 102%. Also, at CDC2L6/CycC (CDK19), the “Percent inhibition of CDK19 activity (%)” value was 104%. Also, the inhibition at 1 µM in assay [1] was found to be 71%.

On to `CCCSc1sc(C(N)=O)c2c1-c1sncc1CC2` [Example 52, 8-(Propylsulfanyl)-4,5-dihydrothieno [3,4-g][1,2]benzothiazole-6-carboxamide], for which, at CDK8/CycC, the “Percent inhibition of CDK8 activity (%)” value stood at 98%. Further, the “Percent inhibition of CDK19 activity (%)” value at CDC2L6/CycC (CDK19) is 95%. The inhibition at 1 µM in assay [1] worked out at 65%.

For `CC(C)S(=O)(=O)c1ccc(Oc2sc(C(N)=O)c3c2-c2sncc2CC3)cc1` [Example 50, 8-(4-(isopropylsulfonyl)phenoxy)-4,5-dihydrothieno[3,4-g][1,2]benzothiazole-6-carboxamide], at CDK8/CycC, the “Percent inhibition of CDK8 activity (%)” value is on record as 99%. Besides, the “Percent inhibition of CDK19 activity (%)” value at CDC2L6/CycC (CDK19) was 99%. Moreover, in assay [1], the inhibition at 1 µM turned out to be 58%.

As to `N#Cc1ccc(Oc2sc(C(N)=O)c3c2-c2sncc2CC3)cc1` [Example 2, 8-(4-Cyanophenoxy)-4,5-dihydrothieno[3,4-g][1,2] benzothiazole-6-carboxamide], the “Percent inhibition of CDK8 activity (%)” value at CDK8/CycC was found to be 100%. Moreover, the “Percent inhibition of CDK19 activity (%)” value on CDC2L6/CycC (CDK19) was 100%. Also, the inhibition at 1 µM in assay [1] was 58%.

Regarding `N#Cc1cncc(Oc2sc(C(N)=O)c3c2-c2sncc2CC3)c1` [Example 103, 8-((5-Cyanopyridin-3-yl)oxy)-4,5-dihydrothieno[3,4-g][1,2]benzothiazole-6-carboxamide], the “Percent inhibition of CDK8 activity (%)” value at CDK8/CycC is listed as 103%. In addition, on CDC2L6/CycC (CDK19), the “Percent inhibition of CDK19 activity (%)” value is on record as 95%. The inhibition at 1 µM in assay [1] is 52%.

Turning to `N=C(N)c1ccc(Oc2sc(C(N)=O)c3c2-c2sncc2CC3)cn1` [Example 14, 8-((6-Carbamimidoylpyridin-3-yl)oxy)-4,5-dihydrothieno[3,4-g][1,2] benzothiazole-6-carboxamide], the “Percent inhibition of CDK8 activity (%)” value at CDK8/CycC was found to be 92%. On CDC2L6/CycC (CDK19), the “Percent inhibition of CDK19 activity (%)” value is 97%. Besides, the inhibition at 1 µM in assay [1] came out at 65%.

Usually inhibition stands for the relative decrease from the control value, in per cent.
